Assays:
[1] = Liquid; for speed of sound: Sing-around technique in a fixed-path interferometer; for mass density: Vibrating tube method
[2] = refractive index (Na D-line) (dimensionless); conditions: 101.33 kPa, Liquid, Standard Abbe refractometry
[3] = xn = mol fraction of the nth substance listed; conditions: 101 kPa, Liquid; for speed of sound: Frequency=3 MHz, Sing-around technique in a fixed-path interferometer; for mass density: Vibrating tube method
[4] = refractive index (Na D-line) (dimensionless); xn = mol fraction of the nth substance listed; conditions: 101 kPa, Liquid, Standard Abbe refractometry

CCCC(=O)O [butanoic acid]
[1], 101.33 kPa
Conditions	mass density [kg/m3]	speed of sound [m/s]
293.15 K	957.78	1195.5
298.15 K	952.81	1176.9
303.15 K	947.94	1158.2
308.15 K	942.92	1139.7
313.15 K	938.05	1121.3

[2]
Conditions	refractive index
293.15 K	1.39826
298.15 K	1.3963
303.15 K	1.39421
308.15 K	1.39217
313.15 K	1.3901

CCCC(=O)O [butanoic acid] + CCCCC(=O)O
x1 = 1
Conditions	mass density, [3] [kg/m3]	refractive index, [4]	speed of sound, [3] [m/s]
293.15 K	957.78	1.39826	1195.5
298.15 K	952.81	1.3963	1176.9
303.15 K	947.94	1.39421	1158.2
308.15 K	942.92	1.39217	1139.7
313.15 K	938.05	1.3901	1121.3

CCOC(=O)OCC [diethyl carbonate]
Conditions	speed of sound [m/s]
[1], 298.15 K, 101 kPa, Frequency=3 MHz	1176.6

Conditions	mass density [kg/m3]
[1], 298.15 K, 101 kPa	969.32

Conditions	refractive index
[2], 298.15 K	1.38249

CCOC(=O)OCC [diethyl carbonate] + CCO
298.15 K
Conditions	mass density, [3] [kg/m3]	refractive index, [4]	speed of sound, [3] [m/s]
x1 = 0.0415	800.3	1.36136	1145.2
x1 = 0.0943	817.71	1.36347	1147.3
x1 = 0.1932	845.85	1.36698	1150.9
x1 = 0.2929	869.58	1.36981	1154
x1 = 0.3938	889.96	1.37241	1156.9
x1 = 0.4965	907.82	1.3746	1159.8
x1 = 0.597	922.99	1.37647	1162.8
x1 = 0.6924	935.73	1.37805	1166
x1 = 0.7911	947.58	1.37957	1169.7
x1 = 0.899	959.27	1.38109	1173.7
x1 = 0.9413	963.58	1.38167	1175
x1 = 1	969.32	1.38249	1176.6

CCO [ethanol]
Conditions	speed of sound [m/s]
[1], 298.15 K, 101 kPa, Frequency=3 MHz	1142.8

Conditions	mass density [kg/m3]
[1], 298.15 K, 101 kPa	785.24

Conditions	refractive index
[2], 298.15 K	1.35945

CCO [ethanol] + CCOC(=O)OCC
298.15 K, x2 = 0
Conditions	mass density [kg/m3]	refractive index	speed of sound [m/s]
[3]	785.24	–	1142.8
[4]	–	1.35945	–

CCCCCCC(=O)O [heptanoic acid]
[1], 101.33 kPa
Conditions	mass density [kg/m3]	speed of sound [m/s]
293.15 K	917.65	1295.4
298.15 K	913.47	1277.7
303.15 K	909.29	1259.9
308.15 K	905.11	1242.2
313.15 K	900.94	1224.7

[2]
Conditions	refractive index
293.15 K	1.42336
298.15 K	1.42138
303.15 K	1.41935
308.15 K	1.41733
313.15 K	1.4153

CCCCC(=O)O [pentanoic acid]
[1], 101.33 kPa
Conditions	mass density [kg/m3]	speed of sound [m/s]
293.15 K	939.41	1234
298.15 K	934.85	1216
303.15 K	930.29	1197.9
308.15 K	925.73	1179.9
313.15 K	921.16	1162.1

[2]
Conditions	refractive index
293.15 K	1.4084
298.15 K	1.40641
303.15 K	1.40438
308.15 K	1.40234
313.15 K	1.4003

CCCCC(=O)O [pentanoic acid] + CCCCCCC(=O)O
x2 = 0
Conditions	mass density, [3] [kg/m3]	refractive index, [4]	speed of sound, [3] [m/s]
293.15 K	939.41	1.4084	1234
298.15 K	934.85	1.40641	1216
303.15 K	930.29	1.40438	1197.9
308.15 K	925.73	1.40234	1179.9
313.15 K	921.16	1.4003	1162.1

— the NIST ThermoML archive (doi:10.1016/j.tca.2014.06.031)
